Here are results for seven molecules from US20260265304A1, “PEPTIDE INHIBITORS OF FOCAL ADHESION KINASE ACTIVITY AND USES THEREOF” (Arizona Board of Regents on Behalf of the University of …, priority 2019, published 2026).

Like-named read-outs stand apart in the source and are kept apart here. Positions of bridges follow the written chain, without caps; N, C: chain ends. Non-standard residues stand in square brackets, D forms with d. Residues, ends and D or L forms follow the SMILES beside them. *: point of attachment. Myristoyl = CCCCCCCCCCCCCC(=O)*; R8 = C=CCCCCCC[C@@](C)(N)C(=O)O; S5 = C=CCCC[C@](C)(N)C(=O)O

For orientation: Kd means a measure of binding affinity in units of concentration. What is called Ki is a measure of affinity in units of concentration, obtained from inhibition or displacement.

Data set [1] deals with SK-MEL-103 melanoma cells. Nature of the data set: 3D Matrigel-on-top proliferation assay. The class given is cell-based. The conditions noted are these: SK-MEL-103 melanoma cells, 3D Matrigel-on-top. The protocol:
B. Competition FP experiment with 1907 showing inhibition of TAMRA-LD2 binding to FAT. C. SPR binding and selectivity analysis using WT FAT and Mutant FAT (L994E, 1936A) at the helix-protein interface. D. Flow cytometry analysis of Rhodamine-1907 (10 μM) cellular uptake in MDA-MB-453 breast cancer cells. E. Boyden-chamber invasion assays in SK-MEL-103 melanoma cells. F. 3D Matrigel-on-top proliferation assays in SK-MEL-103 melanoma cells.
B. 3D structure of negative control molecule (UACC-2020). C. 3D Matrigel-on-top cell proliferation data of stapled peptides in SK-MEL-103 melanoma cells.
A negative control myristoylated peptide (2020) was designed and synthesized based on non-active molecule 2014. Experiments were conducted to test the efficacy of these peptides in 3D proliferation assays using SK-MEL-103 melanoma cells. […] Furthermore, 2012 had no effects on the proliferation of normal HUVEC cells (IC50=NA) (FIG. 7).

Data set [2] addresses T1, FAK FAT domain (biotinylated Avitag-FAT protein) (Homo sapiens, UniProt Q05397).
T1 construct: biotinylated Avitag-FAT protein was diluted in running buffer
T1 sequence (Q05397 914-1045 limits assumed): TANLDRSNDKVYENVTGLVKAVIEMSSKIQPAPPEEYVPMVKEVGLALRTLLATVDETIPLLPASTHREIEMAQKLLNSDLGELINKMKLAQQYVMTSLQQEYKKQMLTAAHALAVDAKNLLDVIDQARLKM
The data set can be described thus: Surface plasmon resonance (SPR) binding to immobilised FAT protein. The following applies: for Kd: FAT protein immobilised, peptide 200 μM-0.01 μM, 1:1 binding model, read-out: SPR KD. The protocol: SPR binding studies were performed on a ForteBio Pioneer FE SPR system. In brief, a SADH Streptavidin in Dextran Hydrogel biosensor (ForteBio) was docked onto the flow cell and preconditioned with two injections of 10 mM NaOH, 1 M NaCl for 1 min at 50 μL/min. […] Empty channel 2 served as the reference control. After achieving a stable baseline, a concentration series (200 μM-0.01 μM) of peptide was prepared in final running buffer (100 mM Tris-HCl, 200 mM NaCl, 0.05% Tween-20, 5% DMSO) and injected using the OneStep gradient injection method at a flow rate of 75 μL/min. […] Raw SPR data were appropriately processed in Qdat software (ForteBio) by normalizing the baseline prior to injection, aligning the channels, subtraction of the reference channel, and blank subtraction. Kinetic data were fitted to a pseudo-first order 1:1 interaction binding model using to calculate KD. In addition, a steady-state model and Req data points were used to validate the binding affinity. Visual inspection of the SPR sensograms was performed to verify appropriate model fitting, lack of mass transport effects, return to baseline, and lack of irregular kinetics.
On the technique in general: Surface plasmon resonance follows binding to a sensor surface in real time, without labels.

Data set [3] concerns the target T2, FAK FAT domain (paxillin-FAT binding) (Homo sapiens, UniProt Q05397).
T2 construct: FP Buffer containing 20 μM FAT and 0.1 μM TAMRA-LD2
T2 sequence (Q05397 914-1045 limits assumed): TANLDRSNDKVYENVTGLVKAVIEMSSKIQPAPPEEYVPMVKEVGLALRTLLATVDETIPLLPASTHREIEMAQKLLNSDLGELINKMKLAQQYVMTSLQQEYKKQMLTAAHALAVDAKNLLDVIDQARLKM
Nature of the data set: Competition fluorescence polarization (FP) assay, inhibition of TAMRA-LD2 binding to FAT. The conditions noted are these: read-out: FP Ki. The protocol: The FP assay buffer used was 20 mM Tris, 200 mM NaCl, 0.05% β-me, 0.1% Triton X-100, 5% glycerol, and 1× Halt protease inhibitor cocktail. […] Bodipy TMR FP optical module (2100-4100) was used as the mirror.
Wells with no FAT were used as a baseline value which was subtracted from the raw values to produce ΔmP values. The plate was read at every hour for four hours to test for time differences in IC50. The titration data was processed through GraphPad Prism to produce a dose response curve and a calculated IC50 with standard error (SE). A four-parameter dose-response inhibition model was utilized and the bottom fit was constrained to the lower plateau of the curve. Ki was determined from the following calculation:
P0 is the concentration of free protein and KD is calculated from the saturation curve. 150 is calculated by the following equation:
where PT is the total protein concentration, LT is the total labeled-ligand concentration, P0 is the positive root of P0^2+(KD+LT)*P0−PT, PL0=P−P0, PL50=PL0/2, L0=LT-PL0, and L50=LT-PL50.
A general note: Fluorescence polarisation rises when a labelled molecule tumbles more slowly, as on binding a larger partner.

The target of a further data set is T3, trypsin (Bos taurus, UniProt P00760).
T3 construct: purchased ThermoFisher
T3 sequence (P00760 24-246): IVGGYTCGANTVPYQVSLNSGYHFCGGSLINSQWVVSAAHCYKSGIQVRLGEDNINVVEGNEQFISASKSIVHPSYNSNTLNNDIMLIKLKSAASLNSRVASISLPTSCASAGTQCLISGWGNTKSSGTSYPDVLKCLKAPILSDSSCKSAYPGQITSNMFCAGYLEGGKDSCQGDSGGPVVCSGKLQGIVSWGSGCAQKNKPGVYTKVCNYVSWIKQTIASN
Nature of the data set: In vitro trypsin digest assay (trypsin-agarose beads, LC-MS). The format is in vitro ADME. The conditions noted are these: trypsin-agarose beads in physiological buffer, read-out: t1/2 in trypsin digest (protease resistance) (converted). Here is the method:
Assays were performed using trypsin-agarose beads (ThermoFisher) and measurement of peptide concentration using LC-MS. Peptide half-lives were calculated using GraphPad Prism software.
Trypsin-agarose beads were used to test the potential cleavage of peptides in a physiological buffer and LC-MS was used as the analytical method to determine peptide concentration.

In data set [4] the target is T1, FAK FAT domain (biotinylated Avitag-FAT protein). The data set can be described thus: Surface plasmon resonance (SPR) binding to immobilised FAT protein. The conditions noted are these: two-site binding model.
For data set [5], the target named is T4, biotinylated Avitag-FAT protein (UniProt Q05397 919-1052, limits assumed, biotinylated (Avitag)).
T4 construct: domain: FAT; Immobilised on a streptavidin sensor for SPR; also called WT FAT; FAT domain of FAK; not shown: Avitag
T4 sequence (looked up): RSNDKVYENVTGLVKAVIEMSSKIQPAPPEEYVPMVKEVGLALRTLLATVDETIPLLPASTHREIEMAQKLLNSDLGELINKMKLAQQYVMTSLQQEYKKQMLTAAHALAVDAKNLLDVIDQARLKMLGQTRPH
Nature of the data set: SPR, biotinylated Avitag-FAT immobilised. Here is the method: SPR binding studies were performed on a ForteBio Pioneer FE SPR system. In brief, a SADH Streptavidin in Dextran Hydrogel biosensor (ForteBio) was docked onto the flow cell and preconditioned with two injections of 10 mM NaOH, 1 M NaCl for 1 min at 50 μL/min. […] Empty channel 2 served as the reference control. After achieving a stable baseline, a concentration series (200 μM-0.01 μM) of peptide was prepared in final running buffer (100 mM Tris-HCl, 200 mM NaCl, 0.05% Tween-20, 5% DMSO) and injected using the OneStep gradient injection method at a flow rate of 75 μL/min. 3% sucrose was utilized as a bulk standard control for OneStep injection and a DMSO calibration curve was performed using a concentration range of 3.5% to 6.5% DMSO. Raw SPR data were appropriately processed in Qdat software (ForteBio) by normalizing the baseline prior to injection, aligning the channels, subtraction of the reference channel, and blank subtraction. Kinetic data were fitted to a pseudo-first order 1:1 interaction binding model using to calculate KD. In addition, a steady-state model and Req data points were used to validate the binding affinity. Visual inspection of the SPR sensograms was performed to verify appropriate model fitting, lack of mass transport effects, return to baseline, and lack of irregular kinetics.

As to `CCCCCCCCCCCCCC(=O)N[C@@H](CC(N)=O)C(=O)N[C@@H](CC(C)C)C(=O)N[C@]1(C)CCCCCCC=CCCC[C@@](C)(C(=O)N[C@@H](CCC(=O)O)C(=O)N[C@@H](CCC(=O)O)C(=O)N[C@@H](CC(N)=O)C(N)=O)NC(=O)[C@H](CC(C)C)NC(=O)[C@H](CC(C)C)NC(=O)[C@H](CCCNC(=N)N)NC(=O)[C@H](CC(=O)O)NC(=O)[C@H](CCC(=O)O)NC(=O)[C@H](CCC(=O)O)NC1=O` [Peptide 2020, Myristoyl-NLR8EEDRLLS5EEN-NH2] (Myristoyl-NL[R8]EEDRLL[S5]EEN-NH2; staple 3-10), the “3D proliferation IC50” value in data set [1] is “no effect”. Also, the dissociation constant Kd in data set [2] was over 200 µM. The Ki in data set [3] is over 1250 µM.
`CC(=O)N[C@@H](CC(N)=O)C(=O)N[C@@H](CC(C)C)C(=O)N[C@@H](CO)C(=O)N[C@@H](CCC(=O)O)C(=O)N[C@@H](CC(C)C)C(=O)N[C@@H](CC(=O)O)C(=O)N[C@@H](CCCNC(=N)N)C(=O)N[C@@H](CC(C)C)C(=O)N[C@@H](CC(C)C)C(=O)N[C@@H](CC(C)C)C(=O)N[C@@H](CCC(=O)O)C(=O)N[C@@H](CC(C)C)C(=O)N[C@@H](CC(N)=O)C(N)=O` [Peptide 1967, reference compound]: the half-life at trypsin is 41.4 min.
As to `CC(=O)N[C@@H](CC(N)=O)C(=O)N[C@@H](CC(C)C)C(=O)N[C@]1(C)CCCCCCC=CCCC[C@@](C)(C(=O)N[C@@H](CCC(=O)O)C(=O)N[C@@H](CC(C)C)C(=O)N[C@@H](CC(N)=O)C(N)=O)NC(=O)[C@H](CC(C)C)NC(=O)[C@H](CC(C)C)NC(=O)[C@H](CCCCN)NC(=O)[C@H](CC(=O)O)NC(=O)[C@H](CC(C)C)NC(=O)[C@H](CCC(=O)O)NC1=O` [Peptide 2028, Ac-NLR8ELDKLLS5ELN-NH2] (Ac-NL[R8]ELDKLL[S5]ELN-NH2; staple 3-10), the dissociation constant Kd in data set [4] (SPR KD (1), site (1)) is 1.36 µM; in data set [4] (read-out: SPR KD (2), site (2)), 10.9 µM.
For `CSCC[C@@H]1NC(=O)[C@H](CC(C)C)NC(=O)[C@H](CCC(=O)O)NC(=O)[C@H](CC(=O)O)NC(=O)[C@H](CC(C)C)NC(=O)[C@H](CCC(=O)O)NC(=O)[C@](C)(NC(=O)[C@@H](NC(=O)[C@H](C)NC(=O)[C@H](CO)NC(C)=O)[C@@H](C)O)CCCCCCC=CCCC[C@@](C)(C(=O)N[C@@H](CO)C(=O)N[C@@H](CC(C)C)C(=O)N[C@@H](CO)C(=O)N[C@@H](CC(=O)O)C(N)=O)NC1=O` [Peptide 1916, Ac-SATR8ELDELMS5SLSD-NH2] (Ac-SAT[R8]ELDELM[S5]SLSD-NH2; staple 4-11), the Kd in data set [2] came out at 32.3 µM. The “binding and inhibitory properties (SPR/FP) in words, compared to 1907” value in data set [2] (SAR discussion of SPR and FP data) is recorded as “did not have comparable activity to LD2-derived 1907”. Further, the inhibition constant (Ki) in data set [3] came out at 47.5 µM.

B1: 1920 (peptide)
peptide: Ac-SLGSNL[R8]ELDRLL[S5]ELNAVQH-NH2
modifications: staple 7-14
SMILES: CC(=O)N[C@@H](CO)C(=O)N[C@@H](CC(C)C)C(=O)NCC(=O)N[C@@H](CO)C(=O)N[C@@H](CC(N)=O)C(=O)N[C@@H](CC(C)C)C(=O)N[C@]1(C)CCCCCCC=CCCC[C@@](C)(C(=O)N[C@@H](CCC(=O)O)C(=O)N[C@@H](CC(C)C)C(=O)N[C@@H](CC(N)=O)C(=O)N[C@@H](C)C(=O)N[C@H](C(=O)N[C@@H](CCC(N)=O)C(=O)N[C@@H](Cc2c[nH]cn2)C(N)=O)C(C)C)NC(=O)[C@H](CC(C)C)NC(=O)[C@H](CC(C)C)NC(=O)[C@H](CCCNC(=N)N)NC(=O)[C@H](CC(=O)O)NC(=O)[C@H](CC(C)C)NC(=O)[C@H](CCC(=O)O)NC1=O
In turn, B1 showed a Kd in data set [5] of 6.95 µM.
Turning to Ac-[R8]ELDRLL[S5]-NH2 (staple 1-8) [2011], the Kd in data set [5] was over 200 µM.

B2: 2014 (peptide)
peptide: Ac-NL[R8]EEDRLL[S5]EEN-NH2
modifications: staple 3-10
SMILES: CC(=O)N[C@@H](CC(N)=O)C(=O)N[C@@H](CC(C)C)C(=O)N[C@]1(C)CCCCCCC=CCCC[C@@](C)(C(=O)N[C@@H](CCC(=O)O)C(=O)N[C@@H](CCC(=O)O)C(=O)N[C@@H](CC(N)=O)C(N)=O)NC(=O)[C@H](CC(C)C)NC(=O)[C@H](CC(C)C)NC(=O)[C@H](CCCNC(=N)N)NC(=O)[C@H](CC(=O)O)NC(=O)[C@H](CCC(=O)O)NC(=O)[C@H](CCC(=O)O)NC1=O
notes: non-active molecule
Regarding B2, the equilibrium dissociation constant (Kd) in data set [5] is over 200 µM.
